What was measured:
[1] = test system: B. subtilis 168; assay: Bliss interaction score (quartile over a dose matrix) (fitness difference); higher = more antagonism (negative = synergy)
Method in brief: (§1)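 The Bliss score subtracts expected fitness, the product of the single-drug fitness values, from observed fitness. Fitness is plate-normalised OD595 at entry into stationary phase, relative to the robust no-drug mean and capped at 1, with single-drug fitness inferred from combinations. Summaries are quartiles over technical, biological and donor/recipient replicates.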

[2] = test system: S. aureus DSM 20231; assay: as above
Method in brief: as §1

[3] = test system: S. pneumoniae D39V; assay: as above
Method in brief: as §1

[4] = test system: S. aureus Newman; assay: as above
Method in brief: as §1

[5] = test system: S. pneumoniae D39V; assay: fitness (endpoint OD595 vs no drug) (fraction); higher = more growth
Method in brief: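 Plates with 384 wells were inoculated at OD595 0.01 using 30 µl of TSB, LB Lennox or CY, or 55 µl for S. pneumoniae. Incubation was at 37 °C, with OD595 measured every 30 min for 14 h. Fitness is the stationary-phase transition optical density over the robust mean of no-drug control wells, after first-reading background subtraction; it is capped at 1.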
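For Bliss interaction score (quartile over a dose matrix) in this document: first quartile when negative (synergy) and third quartile when positive (antagonism).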

CC[C@H]1OC(=O)[C@H](C)[C@@H](O[C@H]2C[C@@](C)(OC)[C@@H](O)[C@H](C)O2)[C@H](C)[C@@H](O[C@@H]2O[C@H](C)C[C@H](N(C)C)[C@H]2O)[C@](C)(OC)C[C@@H](C)C(=O)[C@H](C)[C@@H](O)[C@]1(C)O [Clarithromycin] + CC(=O)NC[C@H]1CN(c2ccc(N3CCOCC3)c(F)c2)C(=O)O1 [Linezolid]
Details	Bliss interaction score
[1]	-0.0553
[2]	-0.135
[3]	-0.0363
[4]	-0.119

fitness, [5], one replicate
Details	first compound 0.007812 µg/mL	first compound 0.01562 µg/mL	first compound 0.03125 µg/mL
partner 0.2 µg/mL	0.728	0.709	0.581
partner 0.4 µg/mL	0.565	0.609	0.452
partner 0.8 µg/mL	0.277	0.314	0.193

fitness, [5]
Details	first compound 0.0625 µg/mL	first compound 0.07 µg/mL	first compound 0.125 µg/mL	first compound 0.14 µg/mL	first compound 0.25 µg/mL	first compound 0.28 µg/mL
partner 0.105 µg/mL	0.637	–	0.35	–	0.111	–
partner 0.2 µg/mL	–	0.0674	–	0.0794	–	0.0498
partner 0.21 µg/mL	0.533	–	0.269	–	0.0783	–
partner 0.4 µg/mL	–	0.0735	–	0.0846	–	0.0492
partner 0.42 µg/mL	0.326	–	0.163	–	0.101	–
partner 0.8 µg/mL	–	0.0543	–	0.0384	–	0.0345

CC[C@H]1OC(=O)[C@H](C)[C@@H](O[C@H]2C[C@@](C)(OC)[C@@H](O)[C@H](C)O2)[C@H](C)[C@@H](O[C@@H]2O[C@H](C)C[C@H](N(C)C)[C@H]2O)[C@](C)(OC)C[C@@H](C)C(=O)[C@H](C)[C@@H](O)[C@]1(C)O [Clarithromycin] + CC(C1CCC(C(O1)OC2C(CC(C(C2O)OC3C(C(C(CO3)(C)O)NC)O)N)N)N)NC [Gentamicin]
main component drawn
Details	Bliss interaction score
[1]	0.0895
[2]	0.12
[3]	-0.06
[4]	0.108

fitness, [5], one replicate, main component drawn
Details	first compound 0.007812 µg/mL	first compound 0.01562 µg/mL	first compound 0.03125 µg/mL
partner 2 µg/mL	0.876	0.84	0.63
partner 4 µg/mL	0.873	0.878	0.651
partner 8 µg/mL	0.885	0.842	0.645

fitness, [5], main component drawn
Details	first compound 0.0625 µg/mL	first compound 0.07 µg/mL	first compound 0.125 µg/mL	first compound 0.14 µg/mL	first compound 0.25 µg/mL	first compound 0.28 µg/mL
partner 2 µg/mL	0.45	0.146	0.228	0.0838	0.0804	0.0949
partner 4 µg/mL	0.447	0.144	0.206	0.0957	0.0925	0.0738
partner 8 µg/mL	0.349	0.195	0.169	0.132	0.104	0.0605

CC[C@H]1OC(=O)[C@H](C)[C@@H](O[C@H]2C[C@@](C)(OC)[C@@H](O)[C@H](C)O2)[C@H](C)[C@@H](O[C@@H]2O[C@H](C)C[C@H](N(C)C)[C@H]2O)[C@](C)(OC)C[C@@H](C)C(=O)[C@H](C)[C@@H](O)[C@]1(C)O [Clarithromycin] + CCC(C)C1C(=O)NC(=C)C(=O)NC(C(=O)NC(CSCC(C(=O)N1)NC(=O)/C(=C/C)/NC(=O)C(C(C)CC)N)C(=O)NC2C(SCC(NC(=O)CNC(=O)C3CCCN3C2=O)C(=O)NC(CCCCN)C(=O)NC4C(SCC(NC(=O)CNC(=O)C(NC(=O)C(NC(=O)C(NC(=O)CNC4=O)C)CC(C)C)CCSC)C(=O)NC(CC(=O)N)C(=O)NC(CCSC)C(=O)NC(CCCCN)C(=O)NC5C(SCC6C(=O)NC(C(=O)NC(CSC(C(C(=O)N6)NC(=O)C(NC5=O)C)C)C(=O)NC(CO)C(=O)NC(C(C)CC)C(=O)NC(CC7=CN=CN7)C(=O)NC(C(C)C)C(=O)NC(=C)C(=O)NC(CCCCN)C(=O)O)CC8=CN=CN8)C)C)C)CC(C)C [Nisin]
main component drawn
Details	Bliss interaction score
[1]	0.0377
[2]	-0.0781
[3]	0.0379
[4]	-0.0489

fitness, [5], one replicate, main component drawn
Details	first compound 0.007812 µg/mL	first compound 0.01562 µg/mL	first compound 0.03125 µg/mL
partner 1.6 µg/mL	0.0546	0.105	0.0716
partner 3.2 µg/mL	0.0468	0.0811	0.0837
partner 6.4 µg/mL	0.0495	0.123	0.0731

[5], main component drawn
Details	fitness
first compound 0.0625 µg/mL, partner 0.4275 µg/mL	0.704
first compound 0.0625 µg/mL, partner 1.71 µg/mL	0.0947
first compound 0.07 µg/mL, partner 1.6 µg/mL	0.0167
first compound 0.07 µg/mL, partner 3.2 µg/mL	0.0245
first compound 0.07 µg/mL, partner 6.4 µg/mL	0.0168
first compound 0.125 µg/mL, partner 0.4275 µg/mL	0.233
first compound 0.125 µg/mL, partner 0.855 µg/mL	0.118
first compound 0.125 µg/mL, partner 1.71 µg/mL	0.0991
first compound 0.14 µg/mL, partner 1.6 µg/mL	0.019
first compound 0.14 µg/mL, partner 3.2 µg/mL	0.0272
first compound 0.14 µg/mL, partner 6.4 µg/mL	0.0323
first compound 0.25 µg/mL, partner 0.4275 µg/mL	0.0872
first compound 0.25 µg/mL, partner 0.855 µg/mL	0.0757
first compound 0.25 µg/mL, partner 1.71 µg/mL	0.0969
first compound 0.28 µg/mL, partner 1.6 µg/mL	0.0103
first compound 0.28 µg/mL, partner 3.2 µg/mL	0.0421
first compound 0.28 µg/mL, partner 6.4 µg/mL	0.0171

CC[C@H]1OC(=O)[C@H](C)[C@@H](O[C@H]2C[C@@](C)(OC)[C@@H](O)[C@H](C)O2)[C@H](C)[C@@H](O[C@@H]2O[C@H](C)C[C@H](N(C)C)[C@H]2O)[C@](C)(OC)C[C@@H](C)C(=O)[C@H](C)[C@@H](O)[C@]1(C)O [Clarithromycin] + CCC[C@@H]1C[C@@H](C(=O)N[C@@H]([C@H]2O[C@H](SC)[C@H](O)[C@@H](O)[C@H]2O)[C@@H](C)O)N(C)C1 [Lincomycin]
Details	Bliss interaction score
[1]	0.103
[2]	-0.12
[3]	0.0426
[4]	-0.144

fitness, [5], one replicate
Details	first compound 0.007812 µg/mL	first compound 0.01562 µg/mL	first compound 0.03125 µg/mL
partner 0.2 µg/mL	0.614	0.678	0.559
partner 0.4 µg/mL	0.545	0.619	0.395
partner 0.8 µg/mL	0.0517	0.0966	0.0574

fitness, [5]
Details	first compound 0.0625 µg/mL	first compound 0.07 µg/mL	first compound 0.125 µg/mL	first compound 0.14 µg/mL	first compound 0.25 µg/mL	first compound 0.28 µg/mL
partner 0.2 µg/mL	–	0.0703	–	0.063	–	0.0359
partner 0.215 µg/mL	0.656	–	0.487	–	0.328	–
partner 0.4 µg/mL	–	0.0783	–	0.0665	–	0.035
partner 0.43 µg/mL	0.599	–	0.367	–	0.262	–
partner 0.8 µg/mL	–	0.0297	–	0.0353	–	0.0359
partner 0.86 µg/mL	0.269	–	0.131	–	0.0936	–

CC[C@H]1OC(=O)[C@H](C)[C@@H](O[C@H]2C[C@@](C)(OC)[C@@H](O)[C@H](C)O2)[C@H](C)[C@@H](O[C@@H]2O[C@H](C)C[C@H](N(C)C)[C@H]2O)[C@](C)(OC)C[C@@H](C)C(=O)[C@H](C)[C@@H](O)[C@]1(C)O [Clarithromycin] + CCN(CC)CCOC(=O)c1ccc(N)cc1 [Procaine]
Details	Bliss interaction score
[1]	0.0395
[2]	0.0493
[3]	0.0576
[4]	0.0711

fitness, [5], one replicate
Details	first compound 0.007812 µg/mL	first compound 0.01562 µg/mL	first compound 0.03125 µg/mL	first compound 0.0625 µg/mL	first compound 0.125 µg/mL	first compound 0.25 µg/mL
partner 85.5 µg/mL	0.962	0.921	0.691	0.659	0.251	0.102
partner 171 µg/mL	0.983	0.903	0.702	0.77	0.284	0.169
partner 342 µg/mL	0.993	0.923	0.719	0.595	0.464	0.33

fitness, [5]
Details	first compound 0.07 µg/mL	first compound 0.14 µg/mL	first compound 0.28 µg/mL
partner 85.5 µg/mL	0.125	0.0737	0.0531
partner 171 µg/mL	0.141	0.065	0.0466
partner 342 µg/mL	0.141	0.0668	0.061

CC[C@H]1OC(=O)[C@H](C)[C@@H](O[C@H]2C[C@@](C)(OC)[C@@H](O)[C@H](C)O2)[C@H](C)[C@@H](O[C@@H]2O[C@H](C)C[C@H](N(C)C)[C@H]2O)[C@](C)(OC)C[C@@H](C)C(=O)[C@H](C)[C@@H](O)[C@]1(C)O [Clarithromycin] + CN1C2=CC=CC=C2N=C3C1=CC=CC3=O [Pyocyanin]
Details	Bliss interaction score
[1]	0.0334
[2]	-0.0903
[3]	-0.0433
[4]	-0.0697

fitness, [5], one replicate
Details	first compound 0.007812 µg/mL	first compound 0.01562 µg/mL	first compound 0.03125 µg/mL	first compound 0.0625 µg/mL	first compound 0.125 µg/mL	first compound 0.25 µg/mL
partner 0.325 µg/mL	0.965	0.884	0.682	0.757	0.486	0.112
partner 0.65 µg/mL	0.928	0.88	0.651	0.75	0.501	0.273
partner 1.3 µg/mL	0.747	0.695	0.525	–	–	–

fitness, [5]
Details	first compound 0.07 µg/mL	first compound 0.14 µg/mL	first compound 0.28 µg/mL
partner 0.325 µg/mL	0.0912	0.0902	0.0525
partner 0.65 µg/mL	0.0867	0.0888	0.0453
partner 1.3 µg/mL	0.0798	0.0783	0.0672

— the supplement of paper PMC10627819
